Reference: ChEMBL document CHEMBL4196029, “New MD2 inhibitors derived from curcumin with improved anti-inflammatory activity” (Eur J Med Chem, 2018)
The source made the active and inactive calls. The rule behind the calls is not given here.

Key:
[1] = Chemical stability in pH 7.4 phosphate buffer at 20 uM measured at 5 mins time intervals for 25 mins by UV absorbance spectroscopic method; type: physicochemical; details: pH 7.4, 25 min
Peritoneal macrophage [2] = assay: Anti-inflammatory activity in C57BL/6 mouse primary peritoneal macrophages assessed as inhibition of LPS-induced IL-6 secretion at 10 uM preincubated for 30 mins followed by LPS addition measured after 24 hrs by ELISA relative to control; type: functional; details: C57BL/6, Peritoneal macrophage
Peritoneal macrophage [3] = assay: Anti-inflammatory activity in C57BL/6 mouse primary peritoneal macrophages assessed as inhibition of LPS-induced IL-6 secretion at 1 to 10 uM preincubated for 30 mins followed by LPS addition measured after 24 hrs by ELISA; type: functional, cell-based
Peritoneal macrophage [4] = assay: Anti-inflammatory activity in C57BL/6 mouse primary peritoneal macrophages assessed as inhibition of LPS-induced TNFalpha secretion at 1 to 10 uM preincubated for 30 mins followed by LPS addition measured after 24 hrs by ELISA; type: functional, cell-based
Peritoneal macrophage [5] = assay: Anti-inflammatory activity in C57BL/6 mouse primary peritoneal macrophages assessed as inhibition of LPS-induced IL-6 secretion at 1 uM preincubated for 30 mins followed by LPS addition measured after 24 hrs by ELISA relative to control; type: functional; details: C57BL/6, Peritoneal macrophage
Peritoneal macrophage [6] = assay: Inhibition of LPS-induced IL-6 mRNA expression in C57BL/6 mouse primary peritoneal macrophages at 10 uM preincubated for 30 mins followed by LPS addition measured after 24 hrs by qRT-PCR analysis; type: functional, cell-based
Peritoneal macrophage [7] = assay: Inhibition of LPS-induced TNFalpha mRNA expression in C57BL/6 mouse primary peritoneal macrophages at 10 uM preincubated for 30 mins followed by LPS addition measured after 24 hrs by qRT-PCR analysis; type: functional, cell-based
Peritoneal macrophage [8] = assay: Inhibition of LPS-induced IL-1beta mRNA expression in C57BL/6 mouse primary peritoneal macrophages at 10 uM preincubated for 30 mins followed by LPS addition measured after 24 hrs by qRT-PCR analysis; type: functional, cell-based
Peritoneal macrophage [9] = assay: Inhibition of LPS-induced COX2 mRNA expression in C57BL/6 mouse primary peritoneal macrophages at 10 uM preincubated for 30 mins followed by LPS addition measured after 24 hrs by qRT-PCR analysis; type: functional, cell-based
Rattus norvegicus [10] = assay: (§1) Anti-inflammatory activity in Sprague-Dawley rat model of LPS-induced acute lung injury assessed as reduction in pulmonary edema at 20 mg/kg, po administered daily for 1 week followed by LPS addition at 30 mins post last dose measured after 6 hrs; type: functional, organism-based
Rattus norvegicus [11] = assay: as §1, with “morphological changes in lungs” for “pulmonary edema”, “hrs by hematoxylin and eosin staining based light microscopic assay” for “hrs”; type: functional, organism-based
Rattus norvegicus [12] = assay: as §1, with “neutrophil extravasation in lungs by measuring tissue myeloperoxidase activity” for “pulmonary edema”, “hrs by spectrophotometric method” for “hrs”; type: functional; parameters: scale not given: the % may be the effect or the level left
Rattus norvegicus [13] = assay: as §1, with “macrophage mobilization to lungs by measuring tissue content of CD68” for “pulmonary edema”, “hrs by DAB staining based light microscopic method” for “hrs”; type: functional, organism-based
Rattus norvegicus [14] = assay: Anti-inflammatory activity in Sprague-Dawley rat model of LPS-induced acute lung injury assessed as reduction in TNFalpha mRNA level in lungs at 20 mg/kg, po administered daily for 1 week followed by LPS addition at 30 mins post last dose measured after 6 hrs by qRT-PCR method; type: functional, organism-based
Rattus norvegicus [15] = assay: Anti-inflammatory activity in Sprague-Dawley rat model of LPS-induced acute lung injury assessed as reduction in MCP1 mRNA level in lungs at 20 mg/kg, po administered daily for 1 week followed by LPS addition at 30 mins post last dose measured after 6 hrs by qRT-PCR method; type: functional, organism-based
Mus musculus = assay: Anti-inflammatory activity in C57BL/6 mouse model of LPS-induced sepsis assessed as survival at 10 mg/kg, iv administered 15 mins prior to LPS treatment measured for 7 days (reference value: 10 to 30%); type: functional; details: C57BL/6, iv
RAW264.7 [16] = assay: Binding affinity to MD2 in […] cells assessed as inhibition of LPS-induced TLR4-MD2 complex dimerization at 10 uM by co-immunoprecipitation assay; type: cell-based
RAW264.7 [17] = assay: Inhibition of MD2 in […] cells harboring NF-kB-luc assessed as inhibition of LPS-induced TLR4 activation-mediated NF-kB transcriptional activity at 2.5 uM preincubated with cells followed by LPS addition measured after 6 hrs by luciferase reporter gene assay; type: cell-based
[18] = biological target: Mitogen-activated protein kinase 1 (Homo sapiens) (UniProt P28482); assay: Inhibition of recombinant human full length N-terminal GST-tagged ERK2 (1 to 360 end residues) expressed in Escherichia coli at 10 uM after 1 hr by caliper mobility shift assay relative to control
[19] = biological target: Mitogen-activated protein kinase 1 (Homo sapiens) (UniProt P28482); assay: Inhibition of recombinant human full length N-terminal GST-tagged ERK2 (1 to 360 end residues) expressed in Escherichia coli at 0.1 uM after 1 hr by caliper mobility shift assay relative to control
[20] = biological target: Interleukin-1 receptor-associated kinase 1 (Homo sapiens) (UniProt P51617); assay: Inhibition of recombinant human N-terminal GST-tagged IRAK1 (194 to 712 residues) expressed in baculovirus expression system at 1 uM after 1 hr by caliper mobility shift assay relative to control
[21] = biological target: T1, Inhibitor of nuclear factor kappa-B kinase subunit beta (Homo sapiens) (UniProt O14920); assay: Inhibition of recombinant human N-terminal His-tagged IKKbeta (1 to 662 residues) expressed in baculovirus expression system at 10 uM after 1 hr by caliper mobility shift assay relative to control
T1 sequence (whole entry): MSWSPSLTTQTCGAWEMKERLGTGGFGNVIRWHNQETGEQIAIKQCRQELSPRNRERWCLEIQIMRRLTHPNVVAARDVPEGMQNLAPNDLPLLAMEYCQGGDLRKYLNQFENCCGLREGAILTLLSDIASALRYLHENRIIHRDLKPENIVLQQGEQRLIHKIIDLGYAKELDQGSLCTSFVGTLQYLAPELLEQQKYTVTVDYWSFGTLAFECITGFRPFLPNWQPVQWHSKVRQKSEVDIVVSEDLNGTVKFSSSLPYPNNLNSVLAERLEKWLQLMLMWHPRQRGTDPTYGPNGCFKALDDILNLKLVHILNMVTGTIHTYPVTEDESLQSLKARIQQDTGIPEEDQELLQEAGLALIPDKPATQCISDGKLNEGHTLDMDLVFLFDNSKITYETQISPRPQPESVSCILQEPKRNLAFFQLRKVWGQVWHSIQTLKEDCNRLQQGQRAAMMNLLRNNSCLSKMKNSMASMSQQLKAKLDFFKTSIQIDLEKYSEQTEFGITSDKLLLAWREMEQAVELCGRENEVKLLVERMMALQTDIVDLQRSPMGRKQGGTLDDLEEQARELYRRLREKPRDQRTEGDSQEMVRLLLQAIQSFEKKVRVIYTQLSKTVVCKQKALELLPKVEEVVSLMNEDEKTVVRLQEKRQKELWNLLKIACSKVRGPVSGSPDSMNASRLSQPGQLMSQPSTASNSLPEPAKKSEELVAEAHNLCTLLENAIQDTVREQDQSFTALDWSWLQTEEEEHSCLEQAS

Sequence of Mitogen-activated protein kinase 1 (Homo sapiens) (P28482 whole entry, the tested form may be a part): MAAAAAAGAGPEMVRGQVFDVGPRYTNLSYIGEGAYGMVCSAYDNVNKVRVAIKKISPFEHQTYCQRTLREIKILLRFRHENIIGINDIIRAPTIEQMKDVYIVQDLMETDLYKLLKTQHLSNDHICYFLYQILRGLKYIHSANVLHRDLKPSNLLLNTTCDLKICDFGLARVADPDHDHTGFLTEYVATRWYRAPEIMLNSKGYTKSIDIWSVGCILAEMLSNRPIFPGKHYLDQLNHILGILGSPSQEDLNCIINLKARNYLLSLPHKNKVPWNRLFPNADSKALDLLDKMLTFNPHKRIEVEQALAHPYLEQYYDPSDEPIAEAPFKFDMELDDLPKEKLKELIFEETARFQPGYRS
Sequence of Interleukin-1 receptor-associated kinase 1 (Homo sapiens) (P51617 whole entry, looked up, the tested form may be a part): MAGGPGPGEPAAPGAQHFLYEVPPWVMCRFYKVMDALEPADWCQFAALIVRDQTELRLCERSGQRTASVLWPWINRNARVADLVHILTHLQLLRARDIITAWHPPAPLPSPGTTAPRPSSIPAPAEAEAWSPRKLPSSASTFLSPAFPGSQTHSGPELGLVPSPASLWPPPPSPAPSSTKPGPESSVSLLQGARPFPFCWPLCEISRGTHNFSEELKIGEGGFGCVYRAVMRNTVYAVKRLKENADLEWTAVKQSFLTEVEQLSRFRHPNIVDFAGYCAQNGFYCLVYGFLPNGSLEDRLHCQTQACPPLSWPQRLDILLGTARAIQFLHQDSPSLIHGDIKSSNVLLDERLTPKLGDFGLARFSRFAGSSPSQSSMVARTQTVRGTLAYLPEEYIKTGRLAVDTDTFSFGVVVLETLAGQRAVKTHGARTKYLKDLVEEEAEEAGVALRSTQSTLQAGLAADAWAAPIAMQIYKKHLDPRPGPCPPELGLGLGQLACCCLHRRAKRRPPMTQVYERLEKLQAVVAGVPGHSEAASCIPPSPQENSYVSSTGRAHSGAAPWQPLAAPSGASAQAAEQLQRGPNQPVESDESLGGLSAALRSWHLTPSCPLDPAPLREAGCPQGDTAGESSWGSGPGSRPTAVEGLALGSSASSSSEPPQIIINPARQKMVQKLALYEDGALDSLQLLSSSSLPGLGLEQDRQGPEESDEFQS

## COc1cc(/C=C2\COC/C(=C\c3cc(OC)c(OC)c(OC)c3)C2=O)cc(OC)c1OC
[1]
  Stability: Stable
Peritoneal macrophage [2]
  inhibition at 10 µM: > 90%
Peritoneal macrophage [3]
  inhibition: Active
Peritoneal macrophage [4]
  inhibition: Active
Peritoneal macrophage [5]
  inhibition at 1 µM: > 90%
Peritoneal macrophage [6]
  inhibition: Active
Peritoneal macrophage [7]
  inhibition: Active
Peritoneal macrophage [8]
  inhibition: Active
Peritoneal macrophage [9]
  inhibition: Active
Rattus norvegicus [10]
  Activity: Active
Rattus norvegicus [11]
  Activity: Active
Rattus norvegicus [12]
  Activity: 40%
Rattus norvegicus [13]
  Activity: Active
Rattus norvegicus [14]
  Activity: Active
Rattus norvegicus [15]
  Activity: Active
Mus musculus
  survival at 10 mg/kg: 70%
RAW264.7 [16]
  inhibition: Active
RAW264.7 [17]
  inhibition: Active
[18]
  inhibition: 7.4%
[19]
  inhibition: 21.3%
[20]
  inhibition: 8.7%
[21]
  inhibition: 7.9%

## COc1cc(/C=C2\CN(C)C/C(=C\c3cc(OC)c(OC)c(OC)c3)C2=O)cc(OC)c1OC
[1]
  Stability: Stable
Peritoneal macrophage [2]
  inhibition at 10 µM: > 90%
Peritoneal macrophage [3]
  inhibition: Active
Peritoneal macrophage [4]
  inhibition: Active
Peritoneal macrophage [5]
  inhibition at 1 µM: > 90%
Peritoneal macrophage [6]
  inhibition: Active
Peritoneal macrophage [7]
  inhibition: Active
Peritoneal macrophage [8]
  inhibition: Active
Peritoneal macrophage [9]
  inhibition: Active
Rattus norvegicus [10]
  Activity: Active
Rattus norvegicus [11]
  Activity: Active
Rattus norvegicus [12]
  Activity: 40%
Rattus norvegicus [13]
  Activity: Active
Rattus norvegicus [14]
  Activity: Active
Rattus norvegicus [15]
  Activity: Active
Mus musculus
  survival at 10 mg/kg: 90%
RAW264.7 [16]
  inhibition: Active
RAW264.7 [17]
  inhibition: Active
[18]
  inhibition: 8.7%
[19]
  inhibition: 11.7%
[20]
  inhibition: 8.7%
[21]
  inhibition: 12.8%
